Measured values from the CheMixHub viscosity set.

Experiment: xn = mol fraction of the nth substance listed

N#CCc1ccccc1 + CNC(C)=O
308.15 K, 101.33 kPa
Settings | viscosity [mPa·s]
x2 = 0.0446 | 1.599
x2 = 0.2775 | 1.791
x2 = 0.3928 | 1.896
x2 = 0.5001 | 2.049
x2 = 0.6015 | 2.252
x2 = 0.6941 | 2.456
x2 = 0.7795 | 2.662
x2 = 0.8542 | 2.87
x2 = 0.9375 | 3.109

CC(C)O + CO
298.15 K, 101.33 kPa
Settings | viscosity [mPa·s]
x2 = 0.0893 | 1.891
x2 = 0.225 | 1.625
x2 = 0.2835 | 1.518
x2 = 0.3984 | 1.332
x2 = 0.5178 | 1.16
x2 = 0.6024 | 1.051
x2 = 0.6852 | 0.945
x2 = 0.8272 | 0.772
x2 = 0.9058 | 0.675

Cc1ccccc1[N+](=O)[O-] + CO
298.15 K, 101 kPa
Settings | viscosity [mPa·s]
x1 = 0.0021 | 0.5422
x1 = 0.0086 | 0.55
x1 = 0.0163 | 0.5579
x1 = 0.0287 | 0.5756
x1 = 0.0599 | 0.621
x1 = 0.0842 | 0.6536
x1 = 0.148 | 0.7466
x1 = 0.1606 | 0.7653
x1 = 0.2493 | 0.894
x1 = 0.2659 | 0.919
x1 = 0.3726 | 1.075
x1 = 0.4073 | 1.119
x1 = 0.4479 | 1.172
x1 = 0.5681 | 1.334
x1 = 0.6575 | 1.457
x1 = 0.7936 | 1.656
x1 = 0.8543 | 1.76
x1 = 0.9606 | 1.982

O=C(O)c1cccc([N+](=O)[O-])c1 + CO
viscosity [mPa·s], 101 kPa
Settings | x1 = 0.0362 | x1 = 0.0466 | x1 = 0.0506 | x1 = 0.0604 | x1 = 0.09126 | x1 = 0.1046
308.15 K | 0.8055 | 0.9203 | 0.9556 | – | 1.889 | 2.773
313.15 K | – | – | – | – | 1.727 | 2.425
318.15 K | – | – | – | – | 1.573 | 2.262
323.15 K | 0.646 | 0.7331 | 0.7603 | 0.8441 | 1.421 | 2.026

CCOC(=O)c1ccccc1 + COCCO
viscosity [mPa·s], 101 kPa
Settings | x2 = 0.1045 | x2 = 0.199 | x2 = 0.2979 | x2 = 0.4016 | x2 = 0.5007 | x2 = 0.6025 | x2 = 0.6973 | x2 = 0.7982 | x2 = 0.8977
298.15 K | 1.883 | 1.824 | 1.803 | 1.757 | 1.774 | 1.752 | 1.773 | 1.761 | 1.783
303.15 K | 1.703 | 1.65 | 1.631 | 1.587 | 1.598 | 1.581 | 1.592 | 1.581 | 1.602
308.15 K | 1.55 | 1.501 | 1.48 | 1.441 | 1.448 | 1.431 | 1.439 | 1.431 | 1.444
